The experiment has as its target T1, MAPK1 (ERK2) (Homo sapiens, UniProt P28482).
T1 construct: purchased Thermo Fisher Scientific (Life Technologies) SelectScreen
Briefly: SelectScreen Z'LYTE. The class given is biochemical. An outline of the steps:
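Percent values come from Thermo SelectScreen profiling of NU5455, combining activity and binding assays. CSF1R was run in Z'LYTE format at Km app ATP, and CAMK1 in Adapta format with ATP listed at 10.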

T1 sequence (P28482 whole entry): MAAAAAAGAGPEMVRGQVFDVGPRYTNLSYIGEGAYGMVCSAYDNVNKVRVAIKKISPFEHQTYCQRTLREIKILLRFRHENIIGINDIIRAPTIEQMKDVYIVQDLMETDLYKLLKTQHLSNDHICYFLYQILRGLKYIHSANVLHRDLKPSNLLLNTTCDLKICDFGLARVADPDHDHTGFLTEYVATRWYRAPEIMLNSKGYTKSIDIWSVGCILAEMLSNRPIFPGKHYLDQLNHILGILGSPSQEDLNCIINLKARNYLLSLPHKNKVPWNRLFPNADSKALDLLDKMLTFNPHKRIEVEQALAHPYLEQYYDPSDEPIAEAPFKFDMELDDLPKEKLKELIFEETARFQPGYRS

With `CN(C(=O)CN1CCOCC1)c1ccc2sc3c(-c4cccc5c(=O)cc(N6CC7CCC(C6)O7)oc45)cccc3c2c1` [NU5455], at 1 µM the inhibition was 10.1%.

For the origin of these results see PMC6934184, “Selective DNA-PKcs inhibition extends the therapeutic index of localized radiotherapy and chemotherapy” (The Journal of Clinical Investigation, 2019).
